Measured values published in patent publication US20250171437A1 (Agios Pharmaceuticals,Inc., priority 2022, published 2025).

Molecular target: T1, human PAH with the R408W mutation (A375 R408W cells) (Homo sapiens, UniProt P00439, R408W)
T1 construct: expressed in transfected cells
T1 sequence (P00439 1-452 R408W): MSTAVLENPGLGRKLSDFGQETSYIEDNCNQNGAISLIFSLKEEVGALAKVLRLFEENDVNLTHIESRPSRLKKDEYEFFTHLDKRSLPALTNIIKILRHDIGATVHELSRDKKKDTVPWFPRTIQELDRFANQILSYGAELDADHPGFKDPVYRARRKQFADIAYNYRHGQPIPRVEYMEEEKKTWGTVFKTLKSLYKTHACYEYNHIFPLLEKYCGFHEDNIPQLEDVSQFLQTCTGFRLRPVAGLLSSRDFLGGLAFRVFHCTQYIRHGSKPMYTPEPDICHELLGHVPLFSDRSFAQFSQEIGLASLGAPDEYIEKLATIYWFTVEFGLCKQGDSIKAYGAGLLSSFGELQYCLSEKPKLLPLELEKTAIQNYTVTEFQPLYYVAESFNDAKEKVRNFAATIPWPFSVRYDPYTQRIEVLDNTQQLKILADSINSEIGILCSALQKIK
Assay: Cell Based Phenylalanine Flux Assay
Details: 24 hrs with compound, then 20 μM sepiapterin and 800 μM 13C9,15N-Phenylalanine for 4 hours, 13C-Tyrosine by LC-MS, average where tested multiple times
In short: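 A375 cells stably expressing lentiviral human PAH R408W were treated with compounds (10-point 2-fold dilutions, 0.5% DMSO, duplicate) for 24 h at 37 °C. Then 20 μM sepiapterin and 800 μM 13C9,15N-Phe were added for 4 h; media 13C-Tyr was measured by LC-MS to give AC50.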

[1] = A375 cells expressing R408W PAH

Row | Compound | AC50 (A375 R408W cells) [µM] | AC50 [1] [µM]
1 | COc1cccc2oc([C@@H]3c4nc[nH]c4CCN3C(=O)c3nnc(-c4ccccn4)o3)nc12 [Example 624, (S)-(4-(4-methoxybenzo[d]oxazol-2-yl)-6,7-dihydro-1H-imidazo[4,5-c]pyridin-5(4H)-yl)(5-(pyridin-2-yl)-1,3,4-oxadiazol-2-yl)methanone] | ≤ 0.5 | –
2 | Cn1ccc(-c2nnc(C(=O)N3CCc4[nH]cnc4[C@@H]3c3nc4ccc(F)cc4o3)o2)n1 [Example 322, (R)-(4-(6-fluorobenzo[d]oxazol-2-yl)-6,7-dihydro-1H-imidazo[4,5-c]pyridin-5(4H)-yl)(5-(1-methyl-1H-pyrazol-3-yl)-1,3,4-oxadiazol-2-yl)methanone] | 1 to 5 | –
3 | O=C(c1nnc(-c2ccn(C(F)F)n2)o1)N1CCc2[nH]cnc2[C@H]1c1nc2cccc(F)c2o1 [Example 862, (S)-(5-(1-(difluoromethyl)-1H-pyrazol-3-yl)-1,3,4-oxadiazol-2-yl)(4-(7-fluorobenzo[d]oxazol-2-yl)-6,7-dihydro-1H-imidazo[4,5-c]pyridin-5(4H)-yl)methanone] | ≤ 0.5 | –
4 | O=C(c1cnn2cc(OCCn3cccn3)ccc12)N1CCc2[nH]cnc2[C@H]1c1nc2cc(F)ccc2o1 (single isomer, unassigned) | – | 1 to 5
5 | Cc1cc(F)cc2nc([C@@H]3c4nc[nH]c4CCN3C(=O)c3oc(C(C)(C)O)nc3C(F)F)oc12 [Example 655, (S)-(4-(difluoromethyl)-2-(2-hydroxypropan-2-yl)oxazol-5-yl)(4-(5-fluoro-7-methylbenzo[d]oxazol-2-yl)-6,7-dihydro-1H-imidazo[4,5-c]pyridin-5(4H)-yl)methanone] | ≤ 0.5 | –
6 | O=C(c1ocnc1C(F)F)N1CCc2[nH]cnc2[C@@H]1c1nc2c(Br)cccc2o1 [Example 434, (R)-(4-(4-bromobenzo[d]oxazol-2-yl)-6,7-dihydro-1H-imidazo[4,5-c]pyridin-5(4H)-yl)(4-(difluoromethyl)oxazol-5-yl)methanone] | ≤ 0.5 | –
7 | Cn1nc(C(C)(C)C)nc1C(=O)N1CCc2[nH]cnc2C1c1nc2ccccc2o1 (centres unmarked) | – | ≥ 5
8 | CC(C)(O)c1nc(C(F)F)c(C(=O)N2CCc3[nH]cnc3[C@@H]2c2nc3c(F)c(F)ccc3o2)o1 [Example 348, (R)-(4-(4,5-difluorobenzo[d]oxazol-2-yl)-6,7-dihydro-1H-imidazo[4,5-c]pyridin-5(4H)-yl)(4-(difluoromethyl)-2-(2-hydroxypropan-2-yl)oxazol-5-yl)methanone] | 1 to 5 | –
9 | CC1(C)CN(C(=O)c2ocnc2C(F)F)C(c2nc3cc(F)ccc3o2)c2nc[nH]c21 (centres unmarked) | – | ≥ 5
10 | Cn1cnnc1C(=O)N1CCc2[nH]cnc2C1c1nc2ccc(F)cc2o1 (centres unmarked) | – | ≥ 5
11 | Cc1nc(-c2cnn(C)c2)sc1C(=O)N1CCc2[nH]cnc2C1c1nc2cc(F)ccc2o1 (centres unmarked) | – | ≥ 5
12 | COc1cccc2oc([C@H]3c4nc[nH]c4CCN3C(=O)c3ncnn3C)nc12 [Example 904, (R)-(4-(4-methoxybenzo[d]oxazol-2-yl)-6,7-dihydro-1H-imidazo[4,5-c]pyridin-5(4H)-yl)(1-methyl-1H-1,2,4-triazol-5-yl)methanone] | ≥ 5 | –
13 | CC(C)(O)c1nc(C(F)F)c(C(=O)N2CCc3[nH]cnc3[C@@H]2c2nc3c(F)cc(F)cc3o2)o1 [Example 300, (R)-(4-(4,6-difluorobenzo[d]oxazol-2-yl)-6,7-dihydro-1H-imidazo[4,5-c]pyridin-5(4H)-yl)(4-(difluoromethyl)-2-(2-hydroxypropan-2-yl)oxazol-5-yl)methanone] | 1 to 5 | –
14 | Cn1nc(C(F)(F)F)nc1C(=O)N1CCc2[nH]cnc2[C@H]1c1nc2ccccc2o1 [Example 683, (S)-(4-(benzo[d]oxazol-2-yl)-6,7-dihydro-1H-imidazo[4,5-c]pyridin-5(4H)-yl)(1-methyl-3-(trifluoromethyl)-1H-1,2,4-triazol-5-yl)methanone] | 1 to 5 | –
15 | O=C(c1ccnn1C(F)(F)F)N1CCc2[nH]cnc2[C@H]1c1nc2cccc(F)c2o1 [Example 289, (S)-(4-(7-fluorobenzo[d]oxazol-2-yl)-6,7-dihydro-1H-imidazo[4,5-c]pyridin-5(4H)-yl)(1-(trifluoromethyl)-1H-pyrazol-5-yl)methanone] | 0.5 to 1 | –
16 | Cc1cccc2nc([C@H]3c4nc[nH]c4CCN3C(=O)c3nc(C(F)(F)F)nn3C)oc12 [Example 686, (R)-(1-methyl-3-(trifluoromethyl)-1H-1,2,4-triazol-5-yl)(4-(7-methylbenzo[d]oxazol-2-yl)-6,7-dihydro-1H-imidazo[4,5-c]pyridin-5(4H)-yl)methanone] | 1 to 5 | –
17 | O=C(c1ocnc1C(F)(F)F)N1CCc2[nH]cnc2[C@H]1c1nc2cc(Br)ccc2o1 [Example 147, (S)-(4-(5-bromobenzo[d]oxazol-2-yl)-6,7-dihydro-1H-imidazo[4,5-c]pyridin-5(4H)-yl)(4-(trifluoromethyl)oxazol-5-yl)methanone] | ≤ 0.5 | –
18 | Cc1ncoc1C(=O)N1CCc2[nH]cnc2[C@@H]1c1nc2cccc(F)c2o1 [Example 570, (R)-(4-(7-fluorobenzo[d]oxazol-2-yl)-6,7-dihydro-1H-imidazo[4,5-c]pyridin-5(4H)-yl)(4-methyloxazol-5-yl)methanone] | 1 to 5 | –
19 | COc1cccc2nc([C@@H]3c4nc[nH]c4CCN3C(=O)c3ccnn3C3CC3)oc12 [Example 767, (S)-(1-cyclopropyl-1H-pyrazol-5-yl)(4-(7-methoxybenzo[d]oxazol-2-yl)-6,7-dihydro-1H-imidazo[4,5-c]pyridin-5(4H)-yl)methanone] | ≤ 0.5 | –
20 | (R)-(4-(5,7-difluorobenzo[d]oxazol-2-yl)-6,7-dihydro-1H-imidazo[4,5-c]pyridin-5(4H)-yl)(5-(1-methyl-1H-pyrazol-4-yl)-1,3,4-oxadiazol-2-yl)methanone [Example 610] | 1 to 5 | –
21 | Cc1ncoc1C(=O)N1Cc2[nH]cnc2[C@@H]1c1nc2ccccc2o1 [Example 942, (R)-(4-(benzo[d]oxazol-2-yl)-4,6-dihydropyrrolo[3,4-d]imidazol-5(1H)-yl)(4-methyloxazol-5-yl)methanone] | 1 to 5 | –
22 | O=C(c1cnn2cc(N3CCOCC3)ccc12)N1CCc2[nH]cnc2C1c1nc2cc(F)ccc2o1 (centres unmarked) | – | 1 to 5
23 | O=C(c1nnc(-c2ccccn2)o1)N1CCc2[nH]cnc2[C@H]1c1nc2cccc(F)c2o1 [Example 335, (S)-(4-(7-fluorobenzo[d]oxazol-2-yl)-6,7-dihydro-1H-imidazo[4,5-c]pyridin-5(4H)-yl)(5-(pyridin-2-yl)-1,3,4-oxadiazol-2-yl)methanone] | ≤ 0.5 | –
24 | O=C(c1ccnn1C(F)(F)F)N1CCc2[nH]cnc2[C@H]1c1nc2cc(F)ccc2o1 [Example 261, (S)-(4-(5-fluorobenzo[d]oxazol-2-yl)-6,7-dihydro-1H-imidazo[4,5-c]pyridin-5(4H)-yl)(1-(trifluoromethyl)-1H-pyrazol-5-yl)methanone] | 0.5 to 1 | –
25 | CC(C)(O)c1nc(C(F)F)c(C(=O)N2CCCc3[nH]cnc3C2c2nc3cc(F)ccc3o2)o1 (centres unmarked) | – | 1 to 5
26 | COc1cc(F)cc2nc([C@H]3c4nc[nH]c4CCN3C(=O)c3oc(C(C)(C)O)nc3C(F)F)oc12 [Example 716, (R)-(4-(difluoromethyl)-2-(2-hydroxypropan-2-yl)oxazol-5-yl)(4-(5-fluoro-7-methoxybenzo[d]oxazol-2-yl)-6,7-dihydro-1H-imidazo[4,5-c]pyridin-5(4H)-yl)methanone] | 1 to 5 | –
